Measurements from patent US20050079151A1, “Therapeutic agents for apoptosis-related diseases” (priority 1998, published 2005).
Where two headings read alike, the source gives them in different places.

Key:
[1] = test system: hippocampal neurocytes; details: cited from earlier work
[2] = test system: Bcl-2; test: Effect for enhancing Bcl-2 expression (Western blotting); format: cell-based; details: G401 cells, MK 100 ng/ml, no cisplatin
Experimental: The effect of MK on the expression of the Bcl-2 gene was examined. Six groups were prepared; the untreated group, the cisplatin (100 μM) treated group, the human MK (100 ng/ml) treated group, the human MK (100 ng/ml)+cisplatin (100 μM) group, the mouse MK (100 ng/ml) treated group, and the mouse MK (100 ng/ml)+cisplatin (100 μM) treated group.
G401 cells were seeded on a 3.5 cm-dish and cultured in 10% FBS/DMEM until the cells became almost confluent. The cells were washed twice and cultured in 0.1% FBS/DMEM overnight. Then, human MK or mouse MK (JP-A No. Hei 8-196293) was added to the MK treatment groups at 100 ng/ml and cultured for six hours. Cisplatin was added to the cisplatin treatment group to 100 μM, and cultured for 2 hours. After culturing, the cells were washed with 0.1% FBS/DMEM three times, cultured in 0.1% FBS/DMEM for 10 hours, and washed with PBS three times.
Two hundred microliters of buffer [1% Triton X-100, 150 mM NaCl, 10 mM Tris (pH 7.4), 1.0 mM EGTA, 0.5% NP-40, 1 mM PMSF, 0.1 μg/ml apiotinin, 40 nM Iewpeptin] were added to each dish and kept on ice for 20 min. The cells in each dish were detached by a scraper, and mixed 8 to 10 times using a syringe with a 26-gauge needle. The cells of each dish were centrifuged in a centrifuge tube at 4° C. at 12000 rpm for 30 min. The precipitated proteins were quantified (BCA Kit; PIERCE). The precipitate prepared from each dish (50 μg) was analyzed by Western blotting using anti-Bcl-2 monoclonal antibody (500×) (Dako; Denmark) and anti-mouse HRP antibody (Jackson Immuno Research) (FIG. 6). The band in each lane is numerically shown (FIG. 7).

Row | Molecule | rescuing hippocampal neurocytes from delayed neuronal death ([1]; 28 days after the injury (Ishimura et al. 1998)) | dosage required for protection from delayed neuronal death ([1]; intraventricular injection (Shigeno et al. 1991)) | rescuing hippocampal neurocytes from delayed neuronal death ([1]; seven days after development of the ischemic injury (Ishimura et al. 1998)) | expression of Bcl-2 [2]
1 | NGF: neurotrophic factor reported in the literature to ameliorate delayed neuronal death | not effective | 10 µg | effective | –
2 | mouse MK: mouse MK (JP-A No. Hei 8-196293) (protein, UniProt P12025 23-140, looked up) Midkine: KKKEKVKKGSECSEWTWGPCTPSSKDCGMGFREGTCGAQTQRVHCKVPCNWKKEFGADCKYKFESWGACDGSTGTKARQGTLKKARYNAQCQETIRVTKPCTSKTKSKTKAKKGKGKD | – | – | – | enhanced the expression of Bcl-2
